Where two headings read alike, the source gives them in different places.
Columns and labels:
[1] = Zeta-potential measurement; type: physicochemical; settings: for Zeta-pot. / mV: zeta potential of peptide, Fig S15 source data; for Zeta pot. / mV: 1 mg/mL in PBS pH 7.4 from 10 mg/mL DMSO stock, 1 d RT, 60 µL diluted in 600 µL 1 mM KCl, Zetasizer Nano ZS, Smoluchowski, mean of triplicate
Outline: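 Samples: 1 mg/mL in PBS pH 7.4 (from DMSO), 1 d at RT, then diluted in 1 mM KCl immediately before measurement. Triplicates, two independent runs averaged.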

[2] = type: physicochemical; settings: for ThT Cat. / ThT-Fluorescence (categorical): ThT-active if fluorescence at least twice the control
Outline: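 Fibrils (1 mg/mL solution) were mixed with 50 µM ThT in PBS for 15 min at RT, and fluorescence was read at λex 440/λem 488 nm against a PBS blank, as a triplicate mean ± SD. Zeta potential came from electrophoretic mobility (Smoluchowski) after 1 d aggregation at 1 mg/mL in PBS pH 7.4, diluted into 1 mM KCl.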

[3] = system: HIV-1 infection of TZM-bl cells; experiment: HIV-1 infectivity enhancement assay, β-galactosidase luminescence; type: cell-based
[4] = relative to blank 42.1851851851852 a.u.
[5] = Feb2021 run; infectivity n-fold relative to virus alone
[6] = Feb2021 run; log10 of infectivity relative to EF-C
[7] = Feb2021 run; n-fold infectivity relative to EF-C
[8] = infectivity class (low / medium / high) of each library peptide; main list in c1-c6, same classes repeated in sub-lists of sequences containing the hydrophobicity/charge patterns P+,H0,P+,H0,P0,H0,P0; P+,H0,P0,H0,P0,H0,P0; P+,H0,P0,H0
[9] = infectivity class (low / medium / high) of the peptide in the sequence-pattern analysis, Fig. S22-A4; class limits not given
[10] = log10 of HIV-1 infection of TZM-bl cells relative to EF-C; Fig S15 source data; asymmetric std dev errors
[11] = ThT fluorescence relative to blank, blank = 42.1851851851852
[12] = Feb2021; figures match the 1.3 µM column
[13] = Feb2021; infectivity relative to virus only
[14] = Feb2021; log10 of infectivity relative to EF-C
[15] = Feb2021; n-fold infectivity relative to EF-C
[16] = log10 of infection relative to EF-C, Figure 6C
[17] = n-fold infection vs virus only, relative to that of EF-C, 1.3 µM peptide
[18] = ThT fluorescence relative to blank (42.1851851851852 a.u.)
[19] = infectivity enhancement relative to EF-C (=1); Feb2021 run
[20] = infectivity n-fold relative to virus only; Feb2021 run
[21] = log10 of infectivity relative to EF-C; Feb2021 run
[22] = log10 of infection relative to EF-C, Figure 7B

Substance	Zeta category ( +1 = if > 4 mV;-1 = if < -4 mV; 0 = -4mV to 4 mV) [1]	Zeta Pot. / mV ([1]; mean, Std in separate column) [mV]	Zeta-pot. / mV [1] [mV]	Tht category (> 1.5 to blank = +) ([2]; category 1/0)	infectivity [3, 8]	infectivity [3, 9]	Log10 Inf. rel. to EF-C [3, 10]	Zeta Pot. / mV [1] [mV]	Tht rel to blank (42.1851851851852) [2, 11]	Absolute Infectivity / RLU /s (Feb2021) [3, 12] [RLU /s]	n-fold to virus (Feb2021) [3, 13]	Log10 of Rel to EFC (Feb2021) [3, 14]	Rel-to EFC (Feb-2021) [3, 15]	ThT Cat. / ThT-Fluorescence (categorical) [2]	Inf. rel. EF-C [3, 17]	further results
KIKIQINMWWQ [VH11]	1 (+1 = if > 4 mV)	11.8	11.8	0 (ThT-inactive (N-Fold <2))	high	high	0.5063									Tht rel to blank (42.1851851851852) [2, 4]: 1.314; n-fold to virus (Feb2021) [3, 5]: 134.825; Log10 of Rel to EFC (Feb2021) [3, 6]: 0.5063; Rel-to EFC (Feb-2021) [3, 7]: 3.209
KIKIQINMWWWQ [VH12]	1 (+1 = if > 4 mV)	9.45	9.45	0 (ThT-inactive (N-Fold <2))	high	high	0.4391									Tht rel to blank (42.1851851851852) [2, 4]: 1.301; n-fold to virus (Feb2021) [3, 5]: 115.5; Log10 of Rel to EFC (Feb2021) [3, 6]: 0.4391; Rel-to EFC (Feb-2021) [3, 7]: 2.749
KIKIQIRGD [MG6]			6.43		low	low	-1.678									Zeta category ( +1 = if > 4 mV;-1 = if < -4 mV; 0 = -4mV to 4 mV) ([1]; FigS26): 1 (+1 = if > 4 mV); Tht category (> 1.5 to blank = +) ([2]; FigS26): 1 (Tht category (> 1.5 to blank = +))
KIKIQIW [TM69]	1 (+1 = if > 4 mV)	12.5	12.5	1 (ThT. Cat is 1, if Rel. ThT >2)	medium		-0.8533	12.5	2.047	4280	5.89	-0.8533	0.1402			Tht rel to blank (42.1851851851852) [2, 4]: 2.047; n-fold to virus (Feb2021) [3, 5]: 5.89; Log10 of Rel to EFC (Feb2021) [3, 6]: -0.8533; Rel-to EFC (Feb-2021) [3, 7]: 0.1402
KIKIWIW														0 (ThT-inactive (N-Fold <2))	0.33	Zeta-Potential / mV ([1]; mean, Figure 6C): 17.23 mV; Log10 Infection Rel EF-C [3, 16]: -0.4875
KIKQIIN [JGA3]	-1 (-1 = if < -4 mV)	-11.7	-11.7		low		-1.4									Tht rel to blank (42.1851851851852) [2, 18]: 1.148; Rel-to EFC ([3]; Fig S8 panels B, D; infectivity enhancement relative to EF-C): 0.0398; n-fold to virus ([3]; Fig S8 panels B, D; infectivity n-fold relative to virus alone): 1.672; Rel-to EFC (Feb-2021) [3, 19]: 0.0398; n-fold to virus (Feb2021) [3, 20]: 1.672; Log10 of Rel to EFC (Feb2021) [3, 21]: -1.4
KIWIWIW														1 (ThT. Cat is 1, if Rel. ThT >2)	0.53	Zeta-Potential / mV ([1]; mean, Figure 6C): 11.33 mV; Log10 Infection Rel EF-C [3, 16]: -0.2793
KLKLKLQL [TG16]	1 (+1 = if > 4 mV)		8.39	0 (ThT-inactive (N-Fold <2))	low	low	-1.009	8.39	1.572	2097	4.111	-1.009	0.09784			
KLKLTLT														1 (ThT. Cat is 1, if Rel. ThT >2)	0.04	Zeta pot. / mV [1]: 1.713 mV; Zeta-Potential / mV ([1]; mean, Figure 6C): 1.713 mV; Inf. rel. EF-C ([3]; HIV-1 infection relative to EF-C; Fig 23 plot, panels A and B; mean of 3 values): 0.03847; Inf. rel. EF-C ([3]; HIV-1 infection relative to EF-C; Fig 23 plot, single data point, replicate 1): 0.0783; Inf. rel. EF-C ([3]; HIV-1 infection relative to EF-C; Fig 23 plot, single data point, replicate 2): 0.01816; Inf. rel. EF-C ([3]; HIV-1 infection relative to EF-C; Fig 23 plot, single data point, replicate 3): 0.01895; Log10 Infection Rel EF-C [3, 16]: -1.415
KLVFFAK [reference compound]														0 (ThT-inactive (N-Fold <2))	0.07	Zeta pot. / mV [1]: 3.2 mV; Zeta-Potential / mV ([1]; mean, Figure 7B): 3.23 mV; Log10 Infection Rel EF-C [3, 22]: -1.15
KVKVKVQV [JG14 / TG14]	0 (0 = -4mV to 4 mV)		-3.41	1 (ThT. Cat is 1, if Rel. ThT >2)	low		-1.763	-3.41	5.801	466.7	0.7254	-1.763	0.01726			
KVKVQVV [TG2]	-1 (-1 = if < -4 mV)	-7.92	-7.92	0 (ThT-inactive (N-Fold <2))	low	low	-2.04	-7.92	1.263	213.3	0.3832	-2.04	0.009121			Tht rel to blank (42.1851851851852) [2, 18]: 1.263; Rel-to EFC (Feb-2021) [3, 19]: 0.009121; n-fold to virus (Feb2021) [3, 20]: 0.3832; Log10 of Rel to EFC (Feb2021) [3, 21]: -2.04
KVKVQVVV [TG8]	0 (0 = -4mV to 4 mV)	0.147	0.147	0 (ThT-inactive (N-Fold <2))	low	low	-1.455	0.147	0.8863	820	1.473	-1.455	0.03506			Tht rel to blank (42.1851851851852) [2, 18]: 0.8863; Rel-to EFC (Feb-2021) [3, 19]: 0.03506; n-fold to virus (Feb2021) [3, 20]: 1.473; Log10 of Rel to EFC (Feb2021) [3, 21]: -1.455
KYFIL [reference compound]														0 (ThT-inactive (N-Fold <2))	0.07	Zeta pot. / mV [1]: -7.2 mV; Zeta-Potential / mV ([1]; mean, Figure 7B): -7.18 mV; Log10 Infection Rel EF-C [3, 22]: -1.14

Source: paper PMC10447463, “Data-mining unveils structure–property–activity correlation of viral infectivity enhancing self-assembling peptides” (Nature Communications, 2023)
